{"source": "paper PMC6424980", "about": "“Distinct G protein-coupled receptor phosphorylation motifs modulate arrestin affinity and activation and global conformation” (Nature Communications, 2019)", "molecules": {"B1": {"name": "phosphopeptide 6P of the bovine rhodopsin C-terminus (peptide)", "chain": "C(fluorescein‑5‑maleimide)DDEASTTVSKTET[pS]QVAPA", "modifications": "not fully specified (residue 12); also: four further phospho-Ser/Thr sites not placed"}, "B2": {"name": "phosphopeptide 4P of the bovine rhodopsin C-terminus (peptide)", "chain": "C(fluorescein‑5‑maleimide)DDEASTTVSKTET[pS]QVAPA", "modifications": "not fully specified (residue 12); also: two further phospho-Ser/Thr sites not placed"}}, "key": {"[1]": {"target": "T1, arrestin-1 (monomerizing mutant F85A, F197A) (Bos taurus, UniProt P08168, F197A/F85A)", "T1 construct": "made in house; host or cells: E. coli NiCo (DE3) cells (New England Biolabs), pET-15b vector", "T1 sequence (P08168 whole entry F85A/F197A)": "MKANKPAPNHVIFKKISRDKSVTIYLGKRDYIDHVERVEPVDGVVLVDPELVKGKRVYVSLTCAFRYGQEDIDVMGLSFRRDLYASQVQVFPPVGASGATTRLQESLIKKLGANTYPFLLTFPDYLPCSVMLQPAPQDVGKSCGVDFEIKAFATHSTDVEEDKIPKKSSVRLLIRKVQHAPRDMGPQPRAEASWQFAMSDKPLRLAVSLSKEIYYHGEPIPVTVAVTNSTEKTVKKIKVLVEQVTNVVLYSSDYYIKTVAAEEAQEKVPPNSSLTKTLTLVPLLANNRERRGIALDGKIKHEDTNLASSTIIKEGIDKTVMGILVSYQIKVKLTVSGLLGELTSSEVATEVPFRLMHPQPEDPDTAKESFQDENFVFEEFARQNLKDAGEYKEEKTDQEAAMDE", "experiment": "Fluorescence anisotropy binding of fluorescein-labelled peptides to arrestin-1", "parameters": "species or system bovine", "source_text": "(§1) Synthesized cDNAs of bovine arrestin-1, human arrestin-2 and human arrestin-3 were ordered from Genewiz, amplified by PCR and cloned (Supplementary Information Table 5) into the pET-15b vector (Novagen), using the Gibson Assembly protocol. The constructs contained an N-terminal hexa histidine tag linked by a linker that contained a Tobacco Etch Virus cleavage site (TEV; […]). PCR was used to introduce the monomerizing arrestin-1 mutations (F85A, F197A)[58]. Note that this mutant was employed for fluorescence anisotropy, trypsin digestion, and NMR experiments. Wild-type arrestin-2 and -3 were used for fluorescence anisotropy and trypsin digestion experiments. […] The arrestin-1 in this construct had the wild-type sequence. Note that this construct differs slightly from that previously published[59],[60] and was optimized for purification. We verified the functionality of this fusion construct using the standard centrifugal pull-down assay using phosphorylated rhodopsin in native ROS membranes.\n0.1–0.2 mg of lyophilized peptide was dissolved in 50 µl of 50 mM phosphate-buffered saline (PBS) buffer at pH 7.0, and then two molar equivalents of fluorescein-5-maleimide dye stock dissolved in dimethylsulfoxid was added. The reaction was carried out at RT in the dark. After 1 h the reaction was topped up with 1 ml of ice-cold 100% acetone and stored until the next day at −20 °C. The precipitated peptide was centrifuged (13,000 × g) for 10 min. The labeled and precipitated peptide was sedimented, and the supernatant was removed. The peptide was resuspended again in ice-cold acetone, stored for 1 h at −20 °C and centrifuged (13,000 × g) for 10 min. […] The precipitated peptide was dried at RT in the dark. It was dissolved in 50 µl of 20 mM Bis-Tris propane pH 7.0 and 150 mM NaCl and its concentration was determined by absorbance. A molar extinction coefficient of 70,000/M/cm at pH 7.0 was assumed for calculating the concentration of the labeled peptide stock.\nAn 11-step serial dilution series of arrestin in 20 mM Bis-Tris propane pH 7.0, 150 mM NaCl, 8 mM 2‑mercaptoethanol, 2% (w/w) BSA, 0.02% (v/v) Tween-20 was prepared and transferred to a black high-bottom 384-well plate (Greiner). As control for free peptide, a position with only buffer was included. The peptide was added at a final concentration of 20 nM to each well. The plate was closed by a clear cover and vortexed for 15 s. Afterwards it was centrifuged (800 × g) for 2 min and stored at RT for 20 min. The reading was performed by default settings of PHERAstar plate-reader (BMG Labtech) and excitation‑/emission-wavelengths of 485 nm (12 nm bandpass)/520 nm (30 nm bandpass) were used. The analysis was performed using Origin2016 (Microcal Inc) software by fitting the data to a one-to-one binding model:2 r=R0+△R*P/Kd+P, where r stands for anisotropy, R0 stands for anisotropy of the ligand, ΔR stands for anisotropy of the complex minus anisotropy of the ligand, P stands for the concentration of protein, and Kd stands for the dissociation constant of the ligand."}, "[2]": {"system": "arrestin-1 mutants I72B and F197NBD with nonphosphorylated light-activated rhodopsin in ROS membranes", "experiment": "Ternary complex formation (site-directed fluorescence and centrifugal pull-down)", "format": "biochemical, bovine", "conditions": "10 µM rhodopsin in ROS, 1 µM arrestin-1 I72B or F197NBD, 100 µM peptide, pH 7", "source_text": "Recombinant bovine arrestin-1 cloned into the pET15b vector was expressed and purified as described. The basic construct was a modified wild-type sequence that contained no native cysteines (C63A, C128S and C143A) nor tryptophans (W194F). Single cysteine residues were introduced by PCR at sites 72 or 197 as previously described. The I72C mutant was labeled with monobromobimane (Thermo Fisher) and is referred to as I72B. The F197C mutant was labeled with N,N′-Dimethyl-N-(Iodoacetyl)-N′-(7-Nitrobenz-2-Oxa-1,3-Diazol-4-yl)Ethylenediamine (IANBD amide, Thermo Fisher) and is referred to as F197NBD. Labeling was carried out as previously described[43],[61]. Both labeled mutants were assessed to be functionally similar to wild-type arrestin-1 using the Extra Meta II assay, which determines the ability of arrestin-1 to bind and stabilize the active Meta II form of rhodopsin[64].\nUnder dim-red light, samples were prepared that contained nonphosphorylated rhodopsin (10 µM) in ROS membranes, 1 µM arrestin-1 I72B or F197NBD, ±100 µM peptide in 50 mM HEPES, 130 mM NaCl, pH 7 (150 or 200 µl sample volume). One hundred microliters of the sample was used for fluorescence measurements, and the remainder was used for the centrifugal pull-down assay (50 µl per assay). Steady-state fluorescence measurements were performed using a SPEX Fluorolog (1680) instrument in front-face mode. Bimane fluorescence was recorded using an excitation wavelength of 400 nm and emission 424–600 nm, and NBD fluorescence was recorded using an excitation wavelength of 500 nm and emission 524–660 (2 nm step size, 0.5 s integration per point). Excitation slits were narrowed to 0.1−0.2 nm to minimize light-activation of rhodopsin, and emission slits were set at 4 nm. Pull-down analysis was performed by centrifuging samples at 16,000 × g for 10 min at 20 °C. Selected samples were light activated (>495 nm) for 15 s prior to centrifugation (appr. 60 s delay time). Following centrifugation, the supernatants were removed, and the pellets were solubilized in loading buffer containing 2% SDS and subjected to SDS PAGE. Bands were visualized using Coomassie Brilliant Blue."}, "arrestin-1 (F85A, F197A)": {"system": "arrestin-1 (F85A, F197A)", "experiment": "Limited trypsin digestion of arrestin-1 in presence of peptide", "format": "biochemical, bovine", "conditions": "arrestin:peptide 1:1.2, 35 °C, SDS PAGE", "source_text": "as §1\nArrestin (60 µg) was mixed at a 1 to 1.2 molar ratio with peptide and preincubated at RT for 5 min before 1 μl of 0.15 mg/ml trypsin stock was added. The enzymatic digestion was carried out at 35 °C (20 mM Bis-Tris propane pH 7.0, 150 mM NaCl, 10 mM 2‑Mercaptoethanol and 2 mM EDTA). At certain time points (5, 15, 30, 60, 90 min), 5 μl aliquots were quenched with heat incubation in the presence of 20 μl SDS loading buffer (95 °C, 5 min) and then subjected to SDS PAGE. Bands were visualized with InstantBlue (Expedeon)."}, "arrestin-2": {"system": "arrestin-2", "experiment": "Fluorescence anisotropy binding of fluorescein-labelled peptides to arrestin-2", "parameters": "species or system human", "source_text": "as §1\n0.1–0.2 mg of lyophilized peptide was dissolved in 50 µl of 50 mM phosphate-buffered saline (PBS) buffer at pH 7.0, and then two molar equivalents of fluorescein-5-maleimide dye stock dissolved in dimethylsulfoxid was added. The reaction was carried out at RT in the dark. […] It was dissolved in 50 µl of 20 mM Bis-Tris propane pH 7.0 and 150 mM NaCl and its concentration was determined by absorbance. […]"}, "[3]": {"target": "T2, bovine arrestin-1 with the monomerizing mutations F85A, F197A (bovine, UniProt P08168 2-404, F85A | F197A)", "T2 construct": "arrestin-1, bovine, synthesized cDNA in pET-15b; monomerizing mutations F85A, F197A; Used for fluorescence anisotropy, trypsin digestion and NMR (2H,15N,13C-labelled for NMR); residues of the linker may remain after cleavage (surmised); source: E. coli NiCo (DE3), purified (Ni-NTA, TEV, SQ column); not shown: His6, N-terminal, cleaved", "T2 sequence (P08168 2-404 F85A/F197A)": "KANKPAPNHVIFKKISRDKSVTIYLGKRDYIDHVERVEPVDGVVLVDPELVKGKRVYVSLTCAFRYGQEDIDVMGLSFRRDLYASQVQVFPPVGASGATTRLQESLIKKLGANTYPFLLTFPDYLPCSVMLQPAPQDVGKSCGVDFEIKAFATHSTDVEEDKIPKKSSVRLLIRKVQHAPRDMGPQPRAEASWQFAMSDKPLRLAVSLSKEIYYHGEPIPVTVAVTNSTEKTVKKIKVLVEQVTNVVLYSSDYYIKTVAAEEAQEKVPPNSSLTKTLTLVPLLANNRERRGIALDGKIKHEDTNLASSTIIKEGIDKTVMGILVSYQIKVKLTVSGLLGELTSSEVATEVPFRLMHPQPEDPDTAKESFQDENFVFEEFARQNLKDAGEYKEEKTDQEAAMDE", "experiment": "fluorescence polarisation; fluorescence anisotropy; 20 nM fluorescently labelled peptide, 11-step serial dilution of arrestin; 20 mM Bis-Tris propane pH 7.0, 150 mM NaCl, 8 mM 2-mercaptoethanol, 2% BSA, 0.02% Tween-20; RT; one-to-one binding model", "conditions": "both partners purified"}}, "note": "Non-standard residues stand in square brackets, D forms with d. No end group written: not given here. pS = N[C@@H](COP(=O)(O)O)C(=O)O", "data": [{"molecule": "CDDEASTTVSKTETSQVAPA [3Pe, tri-phosphorylated rhodopsin C-terminus peptide lacking one or both key sites]", "values": [{"measurement": "binding to arrestin-1 (in words)", "setting": "[1]", "result": "significant loss of affinity"}, {"measurement": "ternary complex formation (arrestin-1, nonphosphorylated rhodopsin, peptide)", "setting": "[2]", "result": "very little arrestin binding"}]}, {"molecule": "CDDEASTTVSKTETSQVAPA [3Pg, tri-phosphorylated rhodopsin C-terminus peptide lacking one key site, containing pT335 and pS338]", "values": [{"measurement": "binding to arrestin-1 (in words)", "setting": "[1]", "result": "significant loss of affinity"}, {"measurement": "ternary complex formation (arrestin-1, nonphosphorylated rhodopsin, peptide)", "setting": "[2]", "result": "moderate ternary complex formation"}]}, {"molecule": "CDDEASTTVSKTETSQVAPA [3Pf]", "values": [{"measurement": "limited trypsin digest pattern of arrestin-1 (conformational change, C-tail displacement)", "setting": "arrestin-1 (F85A, F197A)", "result": "notable exception"}, {"measurement": "binding to arrestin-1 (in words)", "setting": "[1]", "result": "significant loss of arrestin-1 affinity"}, {"measurement": "binding to arrestin-2 (in words)", "setting": "arrestin-2", "result": "bound well"}, {"measurement": "ternary complex formation (arrestin-1, nonphosphorylated rhodopsin, peptide)", "setting": "[2]", "result": "less ternary complex formation"}]}, {"molecule": "CDDEASTTVSKTETSQVAPA [3Pi, tri-phosphorylated rhodopsin C-terminus peptide lacking one key site, containing pT335 and pS338]", "values": [{"measurement": "binding to arrestin-1 (in words)", "setting": "[1]", "result": "significant loss of affinity"}, {"measurement": "ternary complex formation (arrestin-1, nonphosphorylated rhodopsin, peptide)", "setting": "[2]", "result": "moderate ternary complex formation"}]}, {"molecule": "CDDEASTTVSKTETSQVAPA [3Pj, tri-phosphorylated rhodopsin C-terminus peptide lacking one or both key sites]", "values": [{"measurement": "binding to arrestin-1 (in words)", "setting": "[1]", "result": "significant loss of affinity"}, {"measurement": "ternary complex formation (arrestin-1, nonphosphorylated rhodopsin, peptide)", "setting": "[2]", "result": "very little arrestin binding"}]}, {"molecule": "CDDEASTTVSKTETSQVAPA [3Ph, tri-phosphorylated rhodopsin C-terminus peptide lacking one or both key sites]", "values": [{"measurement": "binding to arrestin-1 (in words)", "setting": "[1]", "result": "significant loss of affinity"}, {"measurement": "ternary complex formation (arrestin-1, nonphosphorylated rhodopsin, peptide)", "setting": "[2]", "result": "very little arrestin binding"}]}, {"molecule": "CDDEASTTVSKTETSQVAPA [3Pk, tri-phosphorylated rhodopsin C-terminus peptide lacking one or both key sites]", "values": [{"measurement": "binding to arrestin-1 (in words)", "setting": "[1]", "result": "significant loss of affinity"}, {"measurement": "ternary complex formation (arrestin-1, nonphosphorylated rhodopsin, peptide)", "setting": "[2]", "result": "very little arrestin binding"}]}, {"molecule": "C(fluorescein‑5‑maleimide)DDEASTTVSKTET[pS]QVAPA (not fully specified (residue 12); also: third phospho-Ser/Thr site not placed)", "note": "[tri-phosphorylated peptide 3Pa of the bovine rhodopsin C-terminus]", "values": [{"measurement": "Kd", "setting": "[3]", "result": "< 250", "unit": "µM"}]}, {"molecule": "C(fluorescein‑5‑maleimide)DDEASTTVSKTET[pS]QVAPA (not fully specified (residue 12); also: third phospho-Ser/Thr site not placed)", "note": "[tri-phosphorylated peptide 3Pd of the bovine rhodopsin C-terminus]", "values": [{"measurement": "Kd", "setting": "[3]", "result": "< 250", "unit": "µM"}]}, {"molecule": "B1", "values": [{"measurement": "Kd", "setting": "[3]", "result": "< 250", "unit": "µM"}]}, {"molecule": "C(fluorescein‑5‑maleimide)DDEASTTVSKTET[pS]QVAPA (not fully specified (residue 12); also: third phospho-Ser/Thr site not placed)", "note": "[tri-phosphorylated peptide 3Pc of the bovine rhodopsin C-terminus]", "values": [{"measurement": "Kd", "setting": "[3]", "result": "< 250", "unit": "µM"}]}, {"molecule": "C(fluorescein‑5‑maleimide)DDEASTTVSKTET[pS]QVAPA (not fully specified (residue 12); also: third phospho-Ser/Thr site not placed)", "note": "[tri-phosphorylated peptide 3Pb of the bovine rhodopsin C-terminus]", "values": [{"measurement": "Kd", "setting": "[3]", "result": "< 250", "unit": "µM"}]}, {"molecule": "B2", "values": [{"measurement": "Kd", "setting": "[3]", "result": "< 250", "unit": "µM"}]}]}
